Values joined by “and” are separate entries in the source; they are usually repeats but may differ in a detail not shown here. Identical values can stand only once. Toxic doses and inconclusive results are not listed. Rule for the calls: active = survival T/C of 150% or more; inactive = T/C below 125% in these data.
Test system: CD2F1 mice, L1210 leukemia ip, survival T/C
Test: NCI In Vivo Anticancer Drug Screen. Data for tumor model L1210 Leukemia (intraperitoneal) in CD2F1 (CDF1) mice
Conditions: endpoint: mean survival time, higher = longer survival
Procedure, shortened: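 Transplantable tumor in mice; compound-treated vs vehicle-treated groups. Read-out = treated/control ratio of the measured endpoint.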

[1] = dose: 100.0 mg/kg/injection, schedule: Q01DX001 (ip), vehicle: saline
[2] = dose: 200.0 mg/kg/injection, schedule: Q01DX001 (ip), vehicle: saline
[3] = dose: 50.0 mg/kg/injection, schedule: Q04DX002 (ip), vehicle: saline with Tween-80
[4] = dose: 100.0 mg/kg/injection, schedule: Q04DX002 (ip), vehicle: saline with Tween-80
[5] = dose: 200.0 mg/kg/injection, schedule: Q04DX002 (ip), vehicle: saline with Tween-80
[6] = dose: 50.0 mg/kg/injection, schedule: Q01DX009 (ip), vehicle: saline with Tween-80
[7] = dose: 100.0 mg/kg/injection, schedule: Q01DX009 (ip), vehicle: saline with Tween-80
[8] = dose: 200.0 mg/kg/injection, schedule: Q01DX009 (ip), vehicle: saline with Tween-80

Measured: T/C

CC(C#N)N(C)C (configuration not stated)
inactive: dose: 10.0 mg/kg/injection, schedule: Q04DX003 (ip), vehicle: saline 97 % of control | dose: 20.0 mg/kg/injection, schedule: Q04DX003 (ip), vehicle: saline 104 % of control | dose: 40.0 mg/kg/injection, schedule: Q04DX003 (ip), vehicle: saline 97 % of control

Nc1ncnc2c1ncn2C1OC(CF)C(O)C1O (configuration not stated)
inactive: [1] 104 % of control | [2] 98 % of control

CCCCCCCCCCCCCC1CCCC(C)N1 (configuration not stated)
inactive: [3] 89 % of control and 94 % of control | [4] 93 % of control and 94 % of control | [5] 101 % of control

Clc1ccc2c(c1)[N-]c1ccccc1S2.Clc1ccc2c(c1)[N-]c1ccccc1S2.[Cl][Pt+2][Cl]
inactive: dose: 3.8 mg/kg/injection, schedule: Q04DX003 (ip), vehicle: saline with Tween-80 102 % of control | dose: 7.5 mg/kg/injection, schedule: Q04DX003 (ip), vehicle: saline with Tween-80 102 % of control | dose: 15.0 mg/kg/injection, schedule: Q04DX003 (ip), vehicle: saline with Tween-80 90 % of control | dose: 30.0 mg/kg/injection, schedule: Q04DX003 (ip), vehicle: saline with Tween-80 94 % of control | dose: 60.0 mg/kg/injection, schedule: Q04DX003 (ip), vehicle: saline with Tween-80 90 % of control

O=C(O)c1cscn1.O=C(O)c1cscn1.[I][Pt][I]
inactive: dose: 3.12 mg/kg/injection, schedule: Q04DX003 (ip), vehicle: distilled water + Tween-80 108 % of control | dose: 6.25 mg/kg/injection, schedule: Q04DX003 (ip), vehicle: distilled water + Tween-80 101 % of control | dose: 12.5 mg/kg/injection, schedule: Q04DX003 (ip), vehicle: distilled water + Tween-80 104 % of control | dose: 25.0 mg/kg/injection, schedule: Q04DX003 (ip), vehicle: distilled water + Tween-80 102 % of control | dose: 50.0 mg/kg/injection, schedule: Q04DX003 (ip), vehicle: distilled water + Tween-80 104 % of control | dose: 50.0 mg/kg/injection, schedule: Q04DX003 (ip), vehicle: saline with Tween-80 110 % of control | dose: 100.0 mg/kg/injection, schedule: Q04DX003 (ip), vehicle: distilled water + Tween-80 114 % of control | dose: 100.0 mg/kg/injection, schedule: Q04DX003 (ip), vehicle: saline with Tween-80 104 % of control | dose: 200.0 mg/kg/injection, schedule: Q04DX003 (ip), vehicle: distilled water + Tween-80 119 % of control | dose: 200.0 mg/kg/injection, schedule: Q04DX003 (ip), vehicle: saline with Tween-80 122 % of control | dose: 400.0 mg/kg/injection, schedule: Q04DX003 (ip), vehicle: saline with Tween-80 112 % of control

O=[N+]([O-])O.O=[N+]([O-])O.[NH-]C1CCCCC1[NH-].[Pt+2] (configuration not stated)
inactive: dose: 0.03 mg/kg/injection, schedule: Q01DX009 (ip), vehicle: other 120 % of control | dose: 0.13 mg/kg/injection, schedule: Q04DX003 (ip), vehicle: other 120 % of control | dose: 0.19 mg/kg/injection, schedule: Q04DX003 (ip), vehicle: saline 119 % of control | dose: 0.25 mg/kg/injection, schedule: Q01DX009 (ip), vehicle: dextrose 98 % of control | dose: 0.39 mg/kg/injection, schedule: Q01DX005 (ip), vehicle: saline 119 % of control | dose: 0.39 mg/kg/injection, schedule: Q04DX003 (ip), vehicle: saline 120 % of control | dose: 0.5 mg/kg/injection, schedule: Q01DX001 (ip), vehicle: other 113 % of control | dose: 1.0 mg/kg/injection, schedule: Q01DX009 (ip), vehicle: dextrose 119 % of control | dose: 1.0 mg/kg/injection, schedule: Q01DX009 (ip), vehicle: other 90 % of control | dose: 3.12 mg/kg/injection, schedule: Q01DX005 (oral), vehicle: saline 97 % of control | dose: 4.0 mg/kg/injection, schedule: Q04DX003 (ip), vehicle: other 95 % of control | dose: 6.25 mg/kg/injection, schedule: Q01DX005 (oral), vehicle: saline 97 % of control | dose: 12.5 mg/kg/injection, schedule: Q04DX003 (ip), vehicle: saline 100 % of control

CC(=O)OC(C)Cc1ccccc1 (configuration not stated)
inactive: [6] 96 % of control | [7] 96 % of control | [8] 100 % of control

Cc1ncc(CO)c(C2NOCc3nscc32)c1O (configuration not stated)
inactive: dose: 18.0 mg/kg/injection, schedule: Q01DX009 (ip), vehicle: Klucel (hydroxypropylcellulose) (HPC) 90 % of control | dose: 28.0 mg/kg/injection, schedule: Q01DX009 (ip), vehicle: Klucel (hydroxypropylcellulose) (HPC) 89 % of control

COc1cc(CC(=O)NO)cc(OC)c1OC
inactive: [4] 88 % of control | [5] 88 % of control

Oc1ccccc1C=NCC1CCCC[N-]1.Oc1ccccc1C=NCC1CCCC[N-]1.[Ni+2] (configuration not stated)
inactive: dose: 25.0 mg/kg/injection, schedule: Q04DX002 (ip), vehicle: saline with Tween-80 101 % of control | [3] 98 % of control | dose: 100.0 mg/kg/injection, schedule: Q01DX001 (ip), vehicle: saline with Tween-80 96 % of control | [4] 96 % of control | dose: 132.0 mg/kg/injection, schedule: Q01DX001 (ip), vehicle: saline with Tween-80 101 % of control | dose: 200.0 mg/kg/injection, schedule: Q01DX001 (ip), vehicle: saline with Tween-80 102 % of control | [5] 101 % of control | dose: 300.0 mg/kg/injection, schedule: Q01DX001 (ip), vehicle: saline with Tween-80 107 % of control

O=C(Nc1ccc(Cl)c(Cl)c1)C(Cl)(Cl)Cl
inactive: dose: 100.0 mg/kg/injection, schedule: Q01DX009 (ip), vehicle: saline + alcohol 91 % of control | dose: 200.0 mg/kg/injection, schedule: Q01DX009 (ip), vehicle: saline + alcohol 89 % of control | dose: 400.0 mg/kg/injection, schedule: Q01DX009 (ip), vehicle: saline + alcohol 91 % of control

COc1cc(/C=N/NC(=O)CNC(=O)NCc2ccco2)ccc1O
inactive: [6] 92 % of control | [7] 92 % of control | [8] 92 % of control

CN(C)C=C1C(=O)NC(=O)NC1=O
inactive: [1] 91 % of control | [2] 87 % of control

CC(C)c1ccccc1NC1=NCCO1
inactive: dose: 100.0 mg/kg/injection, schedule: Q04DX003 (ip), vehicle: Klucel (hydroxypropylcellulose) (HPC) 103 % of control | dose: 200.0 mg/kg/injection, schedule: Q04DX003 (ip), vehicle: Klucel (hydroxypropylcellulose) (HPC) 90 % of control

Reference: PubChem BioAssay AID256 (DTP/NCI, 2004)
